{
  "source": "patent EP0366638A2",
  "about": "“Neuromodulatory peptide” (KabiGen AB, priority 1988, dated 1990)",
  "key": {"cortical brain slices": {"test_system": "cortical brain slices", "assay": "release of acetylcholine from cortical brain slices", "assay_type": "cell-based", "conditions": "following depolarization, Fig. 1", "source_text": "The tripeptide resulting from the manufacture according to Example 1 above was used in a test system according to L. Nilsson, V.R. Sara and A. Nordberg, Neurosience Letters, 1988, Vol. 88, pp 221-226. This test procedure is based on stimulation of the release of acetylcholine from cortical brain slices."}, "cortical neurones": {"test_system": "cortical neurones", "assay": "modulation of the electrophysiological activity of cortical neurones (microiontophoresis and pressure ejection procedure)", "conditions": "Fig. 2", "source_text": "The tripeptide from Example 1 above was used in modulation of the electrophysiological activity of cortical neurones, and the results of this experiment is illustrated in Fig. 2. […] In this experiment the procedure according to T.W. Stone (Ed.), \"Microiontophonesis and pressure ejection\", John Wiley & Sons, New York, 1985 was used."}, "spinal cord": {"test_system": "spinal cord", "assay": "electrophysiological reflex response in the spinal cord", "assay_type": "in vivo", "source_text": "The result of these experiments is shown in Fig. 3, from which it is clear that the tripeptide increases both the peak and the duration of the reflex response."}},
  "data": [
    {"smiles": "NCC(=O)N1CCC[C@H]1C(=O)N[C@@H](CCC(=O)O)C(=O)O", "note": "[tripeptide, glycylprolylglutamic acid]", "values": [
      {"measurement": "release of acetylcholine from neurones", "setting": "cortical brain slices", "result": "inhance the release of acetylcholine"},
      {"measurement": "neural response to neurotransmitters", "setting": "cortical neurones; cortical neurones", "result": "modulates"},
      {"measurement": "cortical neurone activity", "setting": "cortical neurones; electrophysiological activity", "result": "both stimulates and inhibits"},
      {"measurement": "duration of the reflex response", "setting": "spinal cord; Fig. 3", "result": "increases"},
      {"measurement": "peak of the reflex response", "setting": "spinal cord; Fig. 3", "result": "increases"},
      {"measurement": "electrophysiological reflex response in the spinal cord", "setting": "spinal cord; in vivo", "result": "facilitate"}
    ]}
  ]
}
